Reference: PubChem BioAssay (NCI)
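Method: 48-hour compound exposure of cells in 96-well plates, five concentrations, linear interpolation of endpoints. At the GI50, growth is halved. TGI marks complete inhibition of growth.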

Key:
Assay in all cases: inhibition of tumour cell growth, NCI panel, 48 h
[1] = tested on: HCT-15 colon
[2] = tested on: IGROV1 ovarian
[3] = tested on: KM12 colon
[4] = tested on: MALME-3M melanoma
[5] = tested on: MDA-MB-231 breast
[6] = tested on: OVCAR-8 ovarian
[7] = tested on: SF-295 CNS
[8] = tested on: SK-MEL-5 melanoma
[9] = tested on: SNB-19 CNS
[10] = tested on: OVCAR-4 ovarian

## S=C1N(c2ccc(Cl)cc2)C2=C(N=Nc3ccccc3)C(=Nc3ccccc3S2)N1c1ccccn1
[1]
  TGI: 23 µM
[2]
  TGI: 1.47 µM
[3]
  TGI: 23.8 µM
[4]
  TGI: 19.8 µM
[5]
  TGI: 25.4 µM
[6]
  TGI: 28.2 µM
[7]
  TGI: 32.3 µM
[8]
  TGI: 23.4 µM
[9]
  TGI: 28.3 µM

## N#C/C=C1\C=CC(O)C(O)C1OC1OC(CO)C(O)C(O)C1O (stereo unspecified)
[1]
  TGI: > 100 µM
[2]
  TGI: > 100 µM
[3]
  TGI: > 100 µM
[4]
  TGI: > 100 µM
[5]
  TGI: > 100 µM
[10]
  TGI: > 100 µM
[6]
  TGI: > 100 µM
[7]
  TGI: > 100 µM
[8]
  TGI: > 100 µM
[9]
  TGI: > 100 µM

## O=S(=O)(O)c1c(N=Nc2c(O)ccc3ccccc23)ccc2ccccc12
[1]
  TGI: > 100 µM
[2]
  TGI: > 100 µM
[3]
  TGI: > 100 µM
[4]
  TGI: > 100 µM
[5]
  TGI: > 100 µM
[10]
  TGI: > 100 µM
[6]
  TGI: > 100 µM
[7]
  TGI: > 100 µM
[8]
  TGI: > 100 µM
[9]
  TGI: > 100 µM

## O=S(O)c1cc(Cl)cc(Cl)c1O
[3]
  TGI: > 100 µM
[4]
  TGI: > 100 µM
[10]
  TGI: > 100 µM
[9]
  TGI: > 100 µM

## CN(C)Cc1ccc(C(=O)Nc2ccc3ncnc(Nc4ccc(Oc5cccc(F)c5)c(Cl)c4)c3c2)cc1
[1]
  GI50: 1.25 µM
  TGI: 2.62 µM
[2]
  GI50: 1.12 µM
  TGI: 2.6 µM
[3]
  GI50: 1.75 µM
  TGI: 3.21 µM
[4]
  GI50: 1.53 µM
  TGI: 3.01 µM
[5]
  GI50: 1.65 µM
  TGI: 3.12 µM
[10]
  GI50: 1.53 µM
  TGI: 3.09 µM
[7]
  GI50: 1.71 µM
  TGI: 3.11 µM
[8]
  GI50: 1.59 µM
  TGI: 2.97 µM
[9]
  GI50: 1.66 µM
  TGI: 3.09 µM

## S=C(Nc1ccc(Cl)cc1)Nc1ccc(Cl)cc1 (tested in a mixture with another compound)
[1]
  GI50: 2.59 µM
  TGI: 11.4 µM
[2]
  GI50: 3.26 µM
  TGI: > 100 µM
[3]
  GI50: 2.76 µM
  TGI: 9.1 µM
[4]
  GI50: 2.55 µM
  TGI: > 100 µM
[5]
  GI50: 1.86 µM
  TGI: 3.68 µM
[10]
  GI50: 2.92 µM
  TGI: > 100 µM
[6]
  GI50: 3.26 µM
  TGI: > 100 µM
[7]
  GI50: 1.75 µM
  TGI: 4.38 µM
[8]
  GI50: 1.55 µM
  TGI: 2.94 µM
[9]
  GI50: 3.25 µM
  TGI: > 100 µM

## CC(=O)OCC1OC(O[C@@H]2c3c(O)c4c(c(O)c3C3=C(NN(c5ccc([N+](=O)[O-])cc5[N+](=O)[O-])[Se]3=O)[C@@]2(C)O)C(=O)c2ccccc2C4=O)C(OC(C)=O)C(OC(C)=O)C1OC(C)=O (stereo partly specified)
[1]
  TGI: 0.873 µM
[2]
  TGI: 1.09 µM
[3]
  TGI: 1.58 µM
[4]
  TGI: 0.355 µM
[5]
  TGI: 1.48 µM
[10]
  TGI: 0.634 µM
[6]
  TGI: 0.562 µM
[7]
  TGI: 1 µM
[8]
  TGI: 0.42 µM

## Fc1ccc(-c2ccc(-c3nnc(-c4cc(F)c(Cl)cc4Cl)o3)o2)cc1Cl
[1]
  GI50: 27.6 µM
  TGI: > 100 µM
[2]
  GI50: 30.1 µM
  TGI: > 100 µM
[3]
  GI50: 26.1 µM
  TGI: 74.1 µM
[4]
  GI50: 18.8 µM
  TGI: 59 µM
[5]
  GI50: 29.7 µM
  TGI: > 100 µM
[10]
  GI50: 50.9 µM
  TGI: > 100 µM
[6]
  GI50: 31.9 µM
  TGI: > 100 µM
[7]
  GI50: 30.2 µM
  TGI: > 100 µM
[8]
  GI50: 17 µM
  TGI: 31.9 µM
[9]
  GI50: 25.4 µM
  TGI: > 100 µM

## O=C(/C=C/c1ccc(O)cc1)NCCc1ccc(O)cc1
[1]
  TGI: > 12.5 µM
[2]
  TGI: > 12.5 µM
[3]
  TGI: > 12.5 µM
[4]
  TGI: > 12.5 µM
[5]
  TGI: > 12.5 µM
[10]
  TGI: > 12.5 µM
[6]
  TGI: > 12.5 µM
[7]
  TGI: > 12.5 µM
[8]
  TGI: > 12.5 µM
[9]
  TGI: > 12.5 µM

## CC(O)C(O)C(N)CC=O (stereo unspecified)
[1]
  TGI: > 500 µM
[2]
  TGI: > 500 µM
[3]
  TGI: > 500 µM
[4]
  TGI: > 500 µM
[10]
  TGI: > 500 µM
[6]
  TGI: > 500 µM
[7]
  TGI: > 500 µM
[8]
  TGI: > 500 µM
[9]
  TGI: > 500 µM

## COc1ccc(SC(C)(SC)c2ccccn2)c(OC)n1 (stereo unspecified)
[1]
  TGI: > 100 µM
[2]
  TGI: > 100 µM
[3]
  TGI: > 100 µM
[4]
  TGI: > 100 µM
[5]
  TGI: > 100 µM
[10]
  TGI: > 100 µM
[6]
  TGI: > 100 µM
[7]
  TGI: > 100 µM
[8]
  TGI: > 100 µM
[9]
  TGI: > 100 µM

## COc1cccc(-c2nc3c(C(=O)NCCN(C)C)cccc3[nH]2)c1
[1]
  TGI: 41.6 µM
[2]
  TGI: 53.9 µM
[3]
  TGI: > 72 µM
[4]
  TGI: 27.6 µM
[10]
  TGI: 84.6 µM
[6]
  TGI: > 58.4 µM
[7]
  TGI: 47.6 µM
[8]
  TGI: 31.5 µM
[9]
  TGI: > 100 µM

## Nc1nc(SCc2ccccc2)c2ncn(Cc3ccccc3)c2n1
[1]
  TGI: > 100 µM
[2]
  TGI: > 100 µM
[3]
  TGI: > 100 µM
[4]
  TGI: > 89.1 µM
[5]
  TGI: > 100 µM
[10]
  TGI: > 100 µM
[6]
  TGI: > 100 µM
[7]
  TGI: > 100 µM
[8]
  TGI: > 100 µM
[9]
  TGI: > 100 µM

## C[N+]1(C)CCC(C#N)(c2ccccc2)CC1
[1]
  TGI: > 100 µM
[2]
  TGI: > 100 µM
[3]
  TGI: > 100 µM
[4]
  TGI: > 100 µM
[10]
  TGI: > 100 µM
[6]
  TGI: > 100 µM
[7]
  TGI: > 100 µM
[8]
  TGI: > 100 µM
[9]
  TGI: > 100 µM

## O=S(=O)(c1ccc(I)cc1)N(c1ccccc1)S(=O)(=O)C(F)(F)C(F)(F)C(F)(F)C(F)(F)F
[1]
  TGI: > 100 µM
[2]
  TGI: > 100 µM
[3]
  TGI: > 100 µM
[4]
  TGI: > 100 µM
[5]
  TGI: > 100 µM
[10]
  TGI: 68.1 µM
[6]
  TGI: > 100 µM
[7]
  TGI: 71.8 µM
[9]
  TGI: > 100 µM

## [C-]#[O+].[C-]#[O+].[Ir].[O-]c1cccc2cccnc12
[1]
  GI50: > 100 µM
  TGI: > 100 µM
[2]
  TGI: > 100 µM
[3]
  GI50: > 100 µM
  TGI: > 100 µM
[4]
  GI50: > 100 µM
  TGI: > 100 µM
[10]
  GI50: > 100 µM
  TGI: > 100 µM
[6]
  GI50: > 100 µM
  TGI: > 100 µM
[7]
  GI50: > 100 µM
  TGI: > 100 µM
[8]
  TGI: > 100 µM
[9]
  GI50: > 100 µM
  TGI: > 100 µM

## C=C1C(=O)OC2C1C(OC(=O)/C(C)=C/C)CC1(C)C(=O)CCC(=C)C21 (stereo unspecified)
[1]
  TGI: 10.3 µM
[2]
  TGI: 26.6 µM
[3]
  TGI: 32 µM
[4]
  TGI: 23.3 µM
[5]
  TGI: 38.4 µM
[10]
  TGI: 30.3 µM
[6]
  TGI: 29.6 µM
[7]
  TGI: 35.8 µM
[8]
  TGI: 22.8 µM

## CC1(C)COC(/C=C/C2=NC(C)(C)CO2)=N1
[1]
  TGI: 34.5 µM
[2]
  TGI: 50.6 µM
[3]
  TGI: 37.1 µM
[4]
  TGI: 41.9 µM
[5]
  TGI: 44.2 µM
[10]
  TGI: 99.5 µM
[6]
  TGI: 51.6 µM
[7]
  TGI: > 100 µM
[8]
  TGI: 27.3 µM
[9]
  TGI: > 100 µM

## O=C1c2ccccc2-c2ccc(N=[N+]([O-])c3ccc4c(c3)C(=O)c3ccccc3-4)cc21
[1]
  TGI: > 100 µM
[2]
  TGI: > 100 µM
[3]
  TGI: > 100 µM
[4]
  TGI: > 100 µM
[5]
  TGI: > 100 µM
[10]
  TGI: > 100 µM
[6]
  TGI: > 100 µM
[7]
  TGI: > 100 µM
[8]
  TGI: > 100 µM
[9]
  TGI: > 100 µM

## O=C(O)C1CC(c2ccccc2)=NN1c1ccccc1 (stereo unspecified)
[1]
  TGI: > 100 µM
[2]
  TGI: > 100 µM
[3]
  TGI: > 100 µM
[4]
  TGI: 96.4 µM
[5]
  TGI: > 100 µM
[10]
  TGI: > 100 µM
[6]
  TGI: > 100 µM
[7]
  TGI: > 100 µM
[8]
  TGI: > 100 µM
[9]
  TGI: > 100 µM
